Test results from ChEMBL document CHEMBL1136080, “(+/-)-2-(3-Piperidyl)-1,2,3,4-tetrahydroisoquinolines as a new class of specific bradycardic agents” (2003).

Assays:
Assay type in all cases: functional
Cavia porcellus = organism: Cavia porcellus; experiment: Concentration required to produce 30% reduction (in vitro) from the initial spontaneous beat rates in isolated guinea pig atrium; conditions: Cardiac atrium
Rattus norvegicus [1] = experiment: Percentage change in heart rate from the initial value in urethane-anesthetized rats at 3 mg/kg intravenous dose
Rattus norvegicus [2] = experiment: Dose to produce minimal influence on mean blood pressure in anesthetized rats

Structure (SMILES) | EC30 (Cavia porcellus) [nM] | Change (Rattus norvegicus [1]) [%] | Dose (Rattus norvegicus [2]) [mg/kg]
COc1cc2c(cc1OC)CN(C1CCCN(CCCOc3ccc4c(c3)OCO4)C1)CC2 (centres undefined) | 250 | 47 | 10
COc1cc2c(cc1OC)CN(C1CCCN(CCCCc3ccccc3)C1)CC2 (centres undefined) | 540 | 23 | –
COc1cc2c(cc1OC)CN(C1CCCN(CCCc3ccccc3)C1)CC2 (centres undefined) | 1200 | – | –
COc1cc2c(cc1OC)CN(C1CCCN(CCCOc3ccc4c(c3)-c3ccccc3C4)C1)CC2 (centres undefined) | 4100 | – | –
COc1ccc(OCCCN2CCCC(N3CCc4cc(OC)c(OC)cc4C3)C2)cc1OC (centres undefined) | 380 | 47 | –
COc1cc2c(cc1OC)CN(C1CCCN(CCCOc3cc(OC)c(OC)c(OC)c3)C1)CC2 (centres undefined) | 1500 | – | –
COc1cc2c(cc1OC)CN(C1CCCN(CCCOc3ccc4ccccc4c3)C1)CC2 (centres undefined) | 840 | 23 | –
COc1cc2c(cc1OC)CN(C1CCCN(CCCCCc3ccccc3)C1)CC2 (centres undefined) | 1300 | – | –
COc1ccc(OCCCN2CCCC(N3CCc4cc(OC)c(OC)cc4C3)C2)cc1 (centres undefined) | 390 | 40 | –
COc1cc2c(cc1OC)CN(C1CCCN(Cc3ccccc3)C1)CC2 (centres undefined) | 830 | 33 | –
COc1cc2c(cc1OC)CN(C1CCCN(CCCOc3ccccc3)C1)CC2 (centres undefined) | 430 | 40 | –
COc1cc2c(cc1OC)CN(C1CCCN(CCCOc3ccc4c(c3)CCC4)C1)CC2 (centres undefined) | 660 | 38 | –
COc1cc2c(cc1OC)CN(C1CCCN(CCc3ccccc3)C1)CC2 (centres undefined) | 2200 | – | –
COc1ccc(CCN(C)CCCN2CCc3cc(OC)c(OC)cc3CC2=O)cc1OC [ZATEBRADINE] | 260 | 47 | –
